From PubChem BioAssay (NCI)
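Five compound concentrations were applied to cells in 96-well plates for 48 hours; endpoints were derived by simple linear interpolation of the resulting dose-response curve. TGI: total growth inhibition.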

Assays:
Test in all cases: growth of human tumour cells (NCI), 48 h
[1] = system: M14 melanoma
[2] = system: RXF 393 renal
[3] = system: OVCAR-5 ovarian
[4] = system: SR leukemia
[5] = system: ACHN renal
[6] = system: UO-31 renal
[7] = system: MDA-MB-231 breast
[8] = system: EKVX NSCLC
[9] = system: KM12 colon
[10] = system: MDA-MB-435
[11] = system: UACC-62 melanoma
[12] = system: IGROV1 ovarian
[13] = system: NCI/ADR-RES ovarian
[14] = system: COLO 205 colon
[15] = system: SF-539 CNS
[16] = system: OVCAR-3 ovarian
[17] = system: A549 NSCLC
[18] = system: HL-60(TB) leukemia
[19] = system: CCRF-CEM leukemia
[20] = system: HS 578T breast
[21] = system: SN12C renal
[22] = system: TK-10 renal
[23] = system: SK-MEL-2 melanoma
[24] = system: A498 renal
[25] = system: 786-0 renal
[26] = system: HT29 colon
[27] = system: HCT-15 colon
[28] = system: MDA-N
[29] = system: U251 CNS
[30] = system: NCI-H522 lung
[31] = system: LOX IMVI melanoma
[32] = system: NCI-H23 lung
[33] = system: HCT-116 colon
[34] = system: RPMI-8226 leukemia
[35] = system: SF-295 CNS
[36] = system: K-562 leukemia
[37] = system: T-47D breast
[38] = system: SK-MEL-5 melanoma
[39] = system: HOP-62 NSCLC
[40] = system: PC-3 prostate
[41] = system: SK-OV-3 ovarian
[42] = system: HCC-2998 colon
[43] = system: MCF7 breast
[44] = system: OVCAR-4 ovarian
[45] = system: HOP-92 NSCLC
[46] = system: UACC-257 melanoma
[47] = system: OVCAR-8 ovarian
[48] = system: MALME-3M melanoma
[49] = system: MOLT-4 leukemia
[50] = system: SNB-75 CNS
[51] = system: SNB-19 CNS
[52] = system: SW-620 colon
[53] = system: NCI-H460 lung
[54] = system: DU-145 prostate
[55] = system: CAKI-1 renal
[56] = system: SF-268 CNS
[57] = system: SK-MEL-28 melanoma
[58] = system: NCI-H226 lung

## COC(=O)c1c2c(cc3c1CC1(Cc4cc5c(cc4C1)CCCC5)C3)CCCC2
[1]
  TGI: > 100 µM
[2]
  TGI: 67.3 µM
[3]
  TGI: > 100 µM
[4]
  TGI: > 100 µM
[5]
  TGI: > 100 µM
[6]
  TGI: > 100 µM
[7]
  TGI: > 100 µM
[8]
  TGI: > 100 µM
[9]
  TGI: > 100 µM
[10]
  TGI: > 100 µM
[11]
  TGI: > 100 µM
[12]
  TGI: > 100 µM
[13]
  TGI: > 100 µM
[14]
  TGI: > 100 µM
[15]
  TGI: > 100 µM
[16]
  TGI: > 100 µM
[17]
  TGI: > 100 µM
[18]
  TGI: > 100 µM
[19]
  TGI: > 100 µM
[20]
  TGI: > 100 µM
[21]
  TGI: > 100 µM
[22]
  TGI: > 100 µM
[23]
  TGI: > 100 µM
[24]
  TGI: > 100 µM
[25]
  TGI: > 100 µM
[26]
  TGI: > 100 µM
[27]
  TGI: > 100 µM
[28]
  TGI: > 100 µM
[29]
  TGI: > 100 µM
[30]
  TGI: > 100 µM
[31]
  TGI: > 100 µM
[32]
  TGI: > 100 µM
[33]
  TGI: 28.6 µM
[34]
  TGI: > 100 µM
[35]
  TGI: > 100 µM
[36]
  TGI: > 100 µM
[37]
  TGI: > 100 µM
[38]
  TGI: > 100 µM
[39]
  TGI: > 100 µM
[40]
  TGI: > 100 µM
[41]
  TGI: > 100 µM
[42]
  TGI: > 100 µM
[43]
  TGI: > 100 µM
[44]
  TGI: > 100 µM
[45]
  TGI: > 100 µM
[46]
  TGI: > 100 µM
[47]
  TGI: > 100 µM
[48]
  TGI: > 100 µM
[49]
  TGI: > 100 µM

## O=[N+]([O-])/C=C/c1cn(CCCCCCCCn2cc(/C=C/[N+](=O)[O-])c3ccccc32)c2ccccc12
[1]
  TGI: > 10 µM
[2]
  TGI: > 10 µM
[3]
  TGI: > 10 µM
[4]
  TGI: > 10 µM
[5]
  TGI: > 10 µM
[6]
  TGI: > 10 µM
[7]
  TGI: > 10 µM
[8]
  TGI: > 10 µM
[9]
  TGI: > 10 µM
[10]
  TGI: > 10 µM
[11]
  TGI: > 10 µM
[12]
  TGI: > 10 µM
[13]
  TGI: > 10 µM
[50]
  TGI: > 10 µM
[51]
  TGI: > 10 µM
[14]
  TGI: > 10 µM
[52]
  TGI: > 10 µM
[15]
  TGI: > 10 µM
[16]
  TGI: > 10 µM
[17]
  TGI: > 10 µM
[18]
  TGI: > 10 µM
[19]
  TGI: > 10 µM
[20]
  TGI: > 10 µM
[21]
  TGI: > 10 µM
[22]
  TGI: > 10 µM
[23]
  TGI: > 10 µM
[24]
  TGI: > 10 µM
[53]
  TGI: > 10 µM
[25]
  TGI: > 10 µM
[26]
  TGI: > 10 µM
[27]
  TGI: > 10 µM
[28]
  TGI: > 10 µM
[30]
  TGI: > 10 µM
[31]
  TGI: > 10 µM
[32]
  TGI: > 10 µM
[33]
  TGI: 0.396 µM
[54]
  TGI: > 10 µM
[34]
  TGI: 1.11 µM
[35]
  TGI: > 10 µM
[55]
  TGI: > 10 µM
[36]
  TGI: > 10 µM
[37]
  TGI: > 10 µM
[38]
  TGI: > 10 µM
[56]
  TGI: > 10 µM
[39]
  TGI: > 10 µM
[40]
  TGI: > 10 µM
[41]
  TGI: > 10 µM
[42]
  TGI: > 10 µM
[44]
  TGI: > 10 µM
[45]
  TGI: > 10 µM
[46]
  TGI: > 10 µM
[47]
  TGI: > 10 µM
[48]
  TGI: > 10 µM
[57]
  TGI: > 10 µM
[58]
  TGI: > 10 µM
[49]
  TGI: > 10 µM
